In patent US20240217966A1, “PHARMACEUTICAL COMPOSITION CONTAINING GLP-1 RECEPTOR AGONIST HAVING FUSED RING” (Shionogi & Co., Ltd., priority 2021, published 2024):
pEC50: −log10 of the molar value.

Target: T1, Human GLP-1 receptor (Homo sapiens, UniProt P43220)
T1 construct: expressed in transfected cells
Test: Measurement of GLP-1 receptor agonist activity (cAMP assay)
Format: cell-based
Settings: cAMP increase in GLP-1 R/CHO-K1 cells, 2 nM human GLP-1 (7-36) = 100%, DMSO only = 0%; for Emax: CHO-K1, maximum effect, read-out: Emax
Summary of the method: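 Agonism measured as cAMP accumulation by time-resolved FRET immunoassay in CHO-K1 cells stably expressing human GLP-1 receptor. Cells treated for 1 h at 37 °C with compound and forskolin (400 μM stock), in buffer containing the PDE inhibitors IBMX (0.1 mM) and RO20-1724 (0.2 mM).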

T1 sequence (P43220 24-463): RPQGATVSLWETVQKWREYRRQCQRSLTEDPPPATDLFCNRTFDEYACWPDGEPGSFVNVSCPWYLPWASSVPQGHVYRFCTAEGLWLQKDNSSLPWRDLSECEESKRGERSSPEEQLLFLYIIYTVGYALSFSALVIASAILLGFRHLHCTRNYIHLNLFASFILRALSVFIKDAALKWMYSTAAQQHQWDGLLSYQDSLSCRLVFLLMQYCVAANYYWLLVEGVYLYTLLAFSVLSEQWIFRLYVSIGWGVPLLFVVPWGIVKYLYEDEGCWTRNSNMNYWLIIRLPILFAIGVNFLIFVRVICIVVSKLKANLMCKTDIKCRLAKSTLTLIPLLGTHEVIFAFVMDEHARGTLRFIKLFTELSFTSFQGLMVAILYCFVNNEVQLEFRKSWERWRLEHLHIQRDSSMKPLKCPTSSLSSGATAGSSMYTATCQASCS

Structure (SMILES) | Emax [%] | pEC50
Cc1ccc(COc2nc3c(cc2C(F)(F)F)CCN(Cc2nc4c(F)cc(C(=O)O)cc4n2C[C@@H]2CCO2)C3)cc1 [Compound I-381] | 116 | 9.15
O=C(O)c1cc(F)c2nc(CN3CCc4cc(C(F)(F)F)c(OCc5ccc(F)cc5F)nc4C3)n(C[C@@H]3CCO3)c2c1 [Compound I-383] | 109 | 9.29
COc1cc(C(=O)O)cc2c1nc(CN1CCc3cc(C(F)(F)F)c(OCc4ccc(Cl)cc4)nc3C1)n2C[C@@H]1CCO1 [Compound I-386] | 112 | 10.06
COc1cc(C(=O)O)cc2c1nc(CN1CCc3cc(C(F)(F)F)c(OCc4ccc(C)cc4)nc3C1)n2C[C@@H]1CCO1 [Compound I-387] | 122 | 9.75
COc1cc(Cl)ccc1COc1nc2c(cc1C(F)(F)F)CCN(Cc1nc3c(OC)cc(C(=O)O)cc3n1C[C@@H]1CCO1)C2 [Compound I-388] | 115 | 10.28
COc1cc(C(=O)O)cc2c1nc(CN1CCc3cc(C(F)(F)F)c(OCc4ccc(Cl)cc4F)nc3C1)n2C[C@@H]1CCO1 [Compound I-390] | 107 | 10.34
COc1cc(C(=O)O)cc2c1nc(CN1CCc3cc(C(F)(F)F)c(OCc4ccc(Cl)cn4)nc3[C@@H]1C)n2C[C@@H]1CCO1 [Compound I-392] | 135 | 10.81
C[C@H]1c2nc(OCc3ccc(Cl)cc3F)c(C(F)F)cc2CCN1Cc1nc2ccc(C(=O)O)cc2n1C[C@@H]1CCO1 [Compound I-394] | 108 | 10.30
C[C@H]1c2nc(OCc3ccc(Cl)cc3F)ccc2CCN1Cc1nc2ccc(C(=O)O)cc2n1C[C@@H]1CCO1 [Compound I-395] | 89.7 | 9.21

Now from value to compound:

Emax [%] | pEC50 | Structure (SMILES)
103 | 10.09 | COc1cc(C(=O)O)cc2c1nc(CN1CCc3cc(C(F)(F)F)c(OCc4ccc(C5CC5)cc4)nc3[C@@H]1C)n2C[C@@H]1CCO1 [Compound I-375]
106 | 10.82 | COc1cc(Cl)ccc1COc1nc2c(cc1C(F)(F)F)CCN(Cc1nc3c(OC)cc(C(=O)O)cc3n1C[C@@H]1CCO1)[C@H]2C [Compound I-376]
126 | 10.75 | COc1cc(C(=O)O)cc2c1nc(CN1CCc3cc(C(F)(F)F)c(OCc4ccc(Cl)cc4Cl)nc3[C@@H]1C)n2C[C@@H]1CCO1 [Compound I-377]
95.3 | 10.84 | COc1cc(C(=O)O)cc2c1nc(CN1CCc3cc(C(F)(F)F)c(OCc4cc(F)c(Cl)cc4F)nc3[C@@H]1C)n2C[C@@H]1CCO1 [Compound I-378]
96 | 10.92 | COc1cc(C(=O)O)cc2c1nc(CN1CCc3cc(C(F)(F)F)c(OCc4c(F)cc(Cl)cc4F)nc3[C@@H]1C)n2C[C@@H]1CCO1 [Compound I-379]
108 | 9.42 | O=C(O)c1cc(F)c2nc(CN3CCc4cc(C(F)(F)F)c(OCc5ccc(Cl)cc5)nc4C3)n(C[C@@H]3CCO3)c2c1 [Compound I-380]
125 | 9.80 | COc1cc(Cl)ccc1COc1nc2c(cc1C(F)(F)F)CCN(Cc1nc3c(F)cc(C(=O)O)cc3n1C[C@@H]1CCO1)C2 [Compound I-382]
114 | 9.90 | O=C(O)c1cc(F)c2nc(CN3CCc4cc(C(F)(F)F)c(OCc5ccc(Cl)cc5Cl)nc4C3)n(C[C@@H]3CCO3)c2c1 [Compound I-384]
112 |  | O=C(O)c1cc(F)c2nc(CN3CCc4cc(C(F)(F)F)c(OCc5ccc(Cl)cc5F)nc4C3)n(C[C@@H]3CCO3)c2c1 [Compound I-385]
115 | 10.30 | COc1cc(C(=O)O)cc2c1nc(CN1CCc3cc(C(F)(F)F)c(OCc4ccc(Cl)cc4Cl)nc3C1)n2C[C@@H]1CCO1 [Compound I-389]
107 | 9.40 | C[C@H]1c2nc(OCc3ccc(Cl)cn3)c(C(F)(F)F)cc2CCN1Cc1nc2ccc(C(=O)O)nc2n1C[C@@H]1CCO1 [Compound I-391]
121 | 10.00 | C[C@H]1c2nc(OCc3ccc(Cl)cc3F)c(I)cc2CCN1Cc1nc2ccc(C(=O)O)cc2n1C[C@@H]1CCO1 [Compound I-393]
